System: LA-Taq DNA Polymerase
Test: PCR with LA-Taq DNA Polymerase in the presence of cationic complexes (GC-rich region, long chain)
Format: biochemical
Conditions: for DNA synthesis reaction when amplifying GC-rich region: human ApoE genomic region 441 bp, GC about 74%, 100 ng HT29 genomic DNA, complex 50, 100, 200 or 500 μM, no amplification without addition
Procedure: The effects on addition of the cationic complex were examined when PCR amplification was carried out with a GC-rich region as a target. As the cationic complex, there was used tris(ethylenediamine)cobalt (III) chloride, or tris(ethylenediamine)rhodium (III) trichloride•trihydrate. Template DNA was prepared from HT29 cells by conventional method. Amplified region and amplified chain lengths were human ApoE genomic region and 441 bp. The GC content of this amplified region was about 74%. As DNA polymerase, TaKaRa LA-Taq DNA Polymerase (manufactured by Takara Shuzo Co., Ltd., hereinafter referred to as “LA-Taq DNA Polymerase”) was used. The composition for a reaction mixture is shown below.
25 μl of 2×GC buffer I (manufactured by Takara Shuzo Co., Ltd.), 0.4 mM each of dATP, dCTP, dGTP and dTTP, 2.5 U of LA-Taq DNA Polymerase, 100 ng of HT29 cells genomic region, and 20 pmol each of primers ApoE-1 and ApoE-2 (a final volume being 50 μl). Each of the above cationic complex was added to the above reaction mixture so as to have a final concentration of 50, 100, 200, or 500 μM, respectively.
The reaction was carried out in Fast mode by using TaKaRa PCR Thermal Cycler Personal. As regarding the reaction conditions, the reaction in 30 cycles was carried out, wherein one cycle of reaction comprises a process consisting of 98° C., 5 seconds—64° C., 10 seconds—72° C., 40 seconds. On the other hand, as a control, the reaction for one without addition of the cationic complex was carried out in the same manner.
After the termination of the reaction, 5 μl of each of the resulting reaction mixtures was subjected to electrophoresis on 2% agarose gel containing ethidium bromide in an amount of 0.00005%. The gel after the electrophoresis was subjected to ultraviolet irradiation to visualize the band ascribed to the amplified product, whereby an amplified fragment was confirmed.
The effects on the amplified chain length when adding a cationic complex were examined. As the cationic complex, there was used hexaamminecobalt (III) trichloride. […]

| Compound | DNA synthesis reaction when amplifying GC-rich region | Amplification of desired long DNA fragment (LA-Taq, 1 ng λDNA, primers λL36/λR485 (48.5 kb), 30 cycles 98°C 10 s–68°C 15 min, 50 μM, only slight without addition) |
| --- | --- | --- |
| NCCN.NCCN.NCCN.[Cl-].[Cl-].[Cl-].[Co+3] [[Co(H2NCH2CH2NH2)3]Cl3, tris(ethylenediamine)cobalt (III) chloride] | enhanced as the concentration of added complex was increased | – |
| N.N.N.N.N.N.[Cl-].[Cl-].[Cl-].[Co+3] [[Co(NH3)6]Cl3, hexaamminecobalt (III) chloride] | – | excellently amplified |
| NCCN.NCCN.NCCN.O.O.O.[Cl][Rh]([Cl])[Cl] [[Rh(H2NCH2CH2NH2)3]Cl3, tris(ethylenediamine)rhodium (III) trichloride•trihydrate] | enhanced as the concentration of added complex was increased as 100 μM, 200 μM and 500 μM | – |

— patent publication US8367328B2, “Method for synthesizing DNA” (Takara Bio Inc., priority 1998, dated 2013)
